Laboratory results from paper PMC3652819, “A Cocoa Peptide Protects Caenorhabditis elegans from Oxidative Stress and β-Amyloid Peptide Toxicity” (PLoS ONE, 2013).
Residues, ends and D or L forms follow the SMILES beside them. No end group written: not given here. *: point of attachment. Cbz = O=C(OCc1ccccc1)*

What was measured:
Aβ42 = details: C. elegans; ref [36], [37]; cited from earlier work
Description: (§1) This could be explained by the release of bioactive peptides from the protein fraction of the by-product.

[1] = tested on: C. elegans strain CL4176 (Aβ1–42); details: ref [36], [37]; cited from earlier work
Description: as §1

[2] = molecular target: T1, prolyl endopeptidase (PEP) (Elizabethkingia meningoseptica, UniProt P27028); assay: biochemical
T1 construct: purchased Seikagaku Corporation, Tokyo, Japan
T1 sequence (P27028 21-705): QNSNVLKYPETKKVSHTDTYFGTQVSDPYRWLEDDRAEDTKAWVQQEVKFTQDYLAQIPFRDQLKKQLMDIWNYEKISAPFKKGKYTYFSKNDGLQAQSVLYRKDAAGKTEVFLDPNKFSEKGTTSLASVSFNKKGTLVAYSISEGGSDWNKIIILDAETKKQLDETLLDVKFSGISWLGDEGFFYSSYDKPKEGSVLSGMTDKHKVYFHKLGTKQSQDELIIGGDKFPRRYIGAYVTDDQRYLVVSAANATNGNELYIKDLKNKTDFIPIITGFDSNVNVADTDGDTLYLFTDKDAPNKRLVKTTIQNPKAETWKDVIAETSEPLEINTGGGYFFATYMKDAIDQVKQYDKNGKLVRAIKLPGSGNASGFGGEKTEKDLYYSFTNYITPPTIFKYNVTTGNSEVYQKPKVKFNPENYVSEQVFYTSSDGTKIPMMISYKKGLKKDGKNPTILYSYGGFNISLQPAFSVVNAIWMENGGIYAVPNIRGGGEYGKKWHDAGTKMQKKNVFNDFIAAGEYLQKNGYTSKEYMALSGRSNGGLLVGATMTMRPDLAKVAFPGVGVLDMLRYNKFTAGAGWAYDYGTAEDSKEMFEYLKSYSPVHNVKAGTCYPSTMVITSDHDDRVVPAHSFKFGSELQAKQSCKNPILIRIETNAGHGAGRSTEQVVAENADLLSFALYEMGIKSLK
Procedure: Prolyl endopeptidase (PEP) activity was determined using a previously described method. Reaction was performed by addition of 0.1 U/ml of PEP (Seikagaku Corporation, Tokyo, Japan) to a 100 mM phosphate buffer pH 7 containing 2 mM of Z-Gly-Pro-p-nitroaniline (Sigma, Madrid, Spain). Samples were incubated for 20 min at 30°C and then the reaction was stopped by adding a volume of 10.5% Triton X-100 in 1 M sodium acetate buffer pH 4. The amount of ρ-nitroaniline released was quantified by spectrophotometry at 410 nm. The inhibitory activity of PEP was determined by adding 100 µl of each sample obtained during the purification process to the enzymatic reaction. Z-Prolyl-Prolinal (ZPP) (0.000426 ppm, Biomol, Plymouth Meeting, USA) was used as positive control of inhibition.

[3] = tested on: C. elegans strain CL4176 (Aβ1–42); assay: body paralysis assay in transgenic C. elegans CL4176 expressing human Aβ1-42; assay type: in vivo, Caenorhabditis elegans; details: for effect on body paralysis (in words): compared with NGM controls; for Mid Paralysis (h), time when 50% of worms were paralyzed / % of worms non paralyzed at onset of paralysis / Onset Paralysis, time: peptides 1 µg/mL, ZPP 1 µM, “Barquillo” 10 µL/mL, fractions 10 µL/mL; for Mid Paralysis (h), time when 50% of worms were paralyzed: NGM 47 h; for % of worms non paralyzed at onset of paralysis: at the onset time, NGM 85.8%; for Onset Paralysis, time: time after Aβ42 induction, NGM 41 h
Procedure: Mutant strain GR1321 (tph-1(mg280)) was used in body fat reduction experiments. All the strains were obtained from the Caenorhabditis Genetics Center (University of Minnesota). Caenorhabditis elegans N2 and tph-1 were routinely propagated on Nematode Growth Medium (NGM) plates with Escherichia coli strain OP50 as a food source at 20°C, while CL4176 was maintained at 16°C. Worms were synchronized by isolating eggs from gravid adults at 20°C (N2 and tph-1) or 16°C (CL4176), and eggs were hatched overnight in NGM plates. In the experiments, the worms were fed with the different compounds from egg through to adult stages, and transferred to new plates every two days. […] ZPP (1 µM) was used as an internal positive control. Transgene expression was induced by up-shifting the temperature from 16°C to 25°C, starting 24 h after egg lying and maintained for 24 h. Then worms were incubated at 20°C until all the worms in the experiment became paralyzed. […] Paralysis in induced worms was compared with non-induced worms (maintained at 16°C until the end of the paralysis assay). Experiments were carried out in triplicate.

[4] = tested on: C. elegans wild-type strain N2; assay: survival of wild-type C. elegans N2 after H2O2-induced oxidative stress; assay type: in vivo, Caenorhabditis elegans; details: compared with NGM
Procedure: Experiments of oxidative stress, body fat reduction and microarrays were carried out with the wild-type strain N2 (Bristol). Paralysis assays were performed with the transgenic strain CL4176 (smg-1^ts [pAF29(myo-3/Aβ1–42/let UTR)+pRF4(rol-6(su10069))]). Paralysis is induced in strain CL4176 by expression of a muscle-specific Aβ1–42, which depends on up-shifting temperature from 16 to 25°C [21], [22]. Mutant strain GR1321 (tph-1(mg280)) was used in body fat reduction experiments. All the strains were obtained from the Caenorhabditis Genetics Center (University of Minnesota).
Caenorhabditis elegans N2 and tph-1 were routinely propagated on Nematode Growth Medium (NGM) plates with Escherichia coli strain OP50 as a food source at 20°C, while CL4176 was maintained at 16°C. Worms were synchronized by isolating eggs from gravid adults at 20°C (N2 and tph-1) or 16°C (CL4176), and eggs were hatched overnight in NGM plates. In the experiments, the worms were fed with the different compounds from egg through to adult stages, and transferred to new plates every two days. […]
Viability of C. elegans was assessed after oxidative stress and differences between nematodes cultured in control and treatment conditions were evaluated by means of one-way analysis of variance (ANOVA) using Statgraphics plus (version 5.1) software (Manugistics, Rockville, MD).

| Compound | IC50 [2] | effect on body paralysis (in words) [3] | Mid Paralysis (h), time when 50% of worms were paralyzed [3] | % of worms non paralyzed at onset of paralysis [3] | Onset Paralysis, time [3] | effect on worm survival after oxidative stress (in words) [4] | also measured |
| --- | --- | --- | --- | --- | --- | --- | --- |
| COC(=O)[C@H]1[C@H]2C[C@@H]3c4[nH]c5cc(OC)ccc5c4CCN3C[C@H]2C[C@@H](OC(=O)c2cc(OC)c(OC)c(OC)c2)[C@@H]1OC [reserpine] | – | – | – | – | – | – | effect on Aβ peptide expression levels (in words) (Aβ42): no effects were observed in Aβ peptide expression levels; effect on paralysis (in words) [1]: effect on delaying paralysis |
| NYDNSAGKW [9L, NYDNSAGKW] | 484 µM | – | – | – | – | – | – |
| TDGVKGEPGPNTL [13R, synthesized peptide from the 21 kDa seed protein of Theobroma cacao] | – | ability to ameliorate Aβ-induced paralysis | 49 h | 83.4% | 41 h | did not produce a significant effect on worm survival rates | inhibitory activity (IC50) against PEP enzyme ([2]; synthetic peptides, 0.1 U/ml PEP, 2 mM Z-Gly-Pro-p-nitroaniline, pH 7, 20 min at 30°C, 410 nm): > 1480 µg/mL |
| DNYDNSAGKWWVT [13L, DNYDNSAGKWWVT] | 122 µM | – | – | – | – | – | – |
| GVKGEPGPNTL [11R, GVKGEPGPNTL] | – | ability to ameliorate Aβ-induced paralysis | 49 h | 89.9% | 41 h | significant protection upon oxidative stress | – |
| O=C[C@@H]1CCCN1C(=O)[C@@H]1CCCN1C(=O)OCc1ccccc1 [ZPP, Z-Prolyl-Prolinal, reference compound] (Cbz-Pro-Pro-aldehyde) | – | – | >49 h | 96.7% | 41 h | – | – |
